Structures can show the parent of a compound that is named as a salt. Where two headings read alike, the source gives them in different places.
Tests used:
[1] = test system: human embryonic kidney 293 cells (HEK293); test: Cell survival in the NF-κB assay; format: cell-based
[2] = test system: TNF-α-induced NF-κB activity; test: Inhibition of TNF-α-activated NF-κB, luciferase reporter assay in HEK293 cells; format: cell-based, human; conditions: for inhibition at 50 µM: read-out: NF-κB assay % inhib.
Excerpt: To study the inhibition of tumor necrosis factor-alpha (TNF-α)-induced activation of nuclear factor-kappa B (NF-κB), human embryonic kidney 293 cells (HEK293) stably transfected with an NF-κB-responsive luciferase reporter construct (Cat. No. RC0014, Panomics, Fremont, CA, USA) were utilized, following previously described protocols (Kondratyuk et al. [2012]). This cell line incorporates a chromosomally integrated luciferase reporter, which produces luciferase enzyme upon NF-κB activation. The enzyme reacts with its substrate to produce a luminescent signal, detectable via luminometry. Cells were seeded at a density of 2 × 10^4 cells/mL in 96-well plates and cultured in Dulbecco’s Modified Eagle Medium (DMEM, Cat. No. D6429, Sigma-Aldrich, Saint Louis, MO, USA) supplemented with 10% fetal bovine serum (FBS, Cat. No. A5670701, Gibco™, Thermo Fisher Scientific, Waltham, MA, USA). The medium also contained 100 µg/mL streptomycin sulfate and 100 IU/mL penicillin G (Cat. No.15140 Gibco BRL, Grand Island, NY, USA). The cells were then treated with varying concentrations of the test sample and stimulated with recombinant human TNF-α (2 ng/mL, Cat. No. HZ-1014, Proteintech Group, Inc. Rosemont, IL, USA).
Following a 6-hour incubation, the cells were rinsed with phosphate buffer saline (PBS), lysed with 40 μL of 1X Reporter Lysis Buffer (Cat. No. E2661, Promega, Madison, WI, USA), and subjected to a freeze-thaw cycle (−80 °C/37 °C). Luminescence, generated by the luciferase reaction, was quantified using the Luc assay system (Cat. No. N1610, Promega, Madison, WI, USA) and a LUMIstar Galaxy luminometer (BMG, Offenburg, Germany).

[3] = test system: NO production in LPS-activated murine macrophage RAW 264.7 cells; test: cells; format: cell-based, mouse; conditions: for inhibition at 50 µM / IC50: Mus musculus; for inhibition at 50 µM: read-out: Nitrite assay % inhib.; for NO inhibitory activity: compared with positive control L-NMMA / within the series
Procedure: The inhibition of nitric oxide (NO) production in lipopolysaccharide (LPS)-stimulated murine macrophage RAW 264.7 cells was evaluated following previously described methods (Min et al. [2009]). RAW 264.7 cell line was purchased from ATCC (Cat. No. TIB-71, Manassas, VA, USA) and cultured in Dulbecco’s modified Eagle’s medium (DMEM, Cat. No. 12800-082, Invitrogen, Massachusetts, USA) supplemented with 10% heat-inactivated fetal bovine serum (FBS, Cat. No. 26140, Gibco BRL Co, Grand Island, NY, USA), 100× penicillin G and streptomycin (Cat. No.11074440001, Sigma-Aldrich, Saint Louis, MO, USA) and 2 mM L-glutamine (Cat. No. 25030, Gibco BRL Co, Grand Island, NY, USA). Cells were seeded at 10 × 10^5 cells per well in 96-well plates and incubated for 24 h at 37 °C in a humidified atmosphere containing 5% CO2.
(§1) Test compounds were dissolved in phenol red-free DMEM (Cat. No. 12-917 F, Lonza, Massachusetts, USA) and added to the cells as a pretreatment for 30 min. The cells were then exposed to LPS (1 µg/mL, Cat. No. L-2762, Sigma-Aldrich, Saint Louis, MO, USA) for 20 h. Nitric oxide levels were quantified using the Griess reagent, which consists of a 1:1 (v/v) mixture of 1% sulfanilamide (Cat.No. A13001, Alfa Aesar, Massachusetts, USA) in H3PO4 and N-(1-naphthyl)ethylenediamine dihydrochloride (Cat. No. 102397, MP Biomedicals, USA). A standard curve was generated using sodium nitrite (Cat. No. 44227, Alfa Aesar, Massachusetts, USA), and IC50 values were calculated using Table Curve 2D software (Version 4.07, AISN Software Inc., Richmond, VA, USA). Also, a sulforhodamine B (SRB, Cat. No. S9012, Sigma-Aldrich, Saint Louis, MO, USA) assay was performed to assess the cytotoxic effects of the test compounds on RAW 264.7 cells.

RAW 264.7 cells = test: SRB cytotoxicity / survival of RAW 264.7 cells in the nitrite assay; format: cell-based, mouse; conditions: for Nitrite assay % surv.: % survival at a concentration of 50 μM, RAW 264.7; for cytotoxicity in NO assay: RAW 264.7 cells
Procedure: as §1

[4] = test system: NO-production in LPS-stimulated RAW 264.7 cells; design: method as in Choudhari et al. [2013]; Park et al. [2019]; conditions: ref Choudhari et al. [2013], Park et al. [2019], read-out: NO-production IC50 (literature); cited from earlier work
[5] = SRB cytotoxicity / survival of RAW 264.7 cells in the nitrite assay; format: cell-based, mouse; conditions: mouse; cytotoxicity in RAW 264.7 cells, NO assay; read-out: cytotoxic IC50
Procedure: as §1

[6] = Homo sapiens, HEK293, % inhibition at a concentration of 50 μM, TNF-α 2 ng/mL, 6 h
[7] = Homo sapiens, TNF-α-induced NF-κB luciferase, HEK293, read-out: NF-κB assay IC50
[8] = RAW264.7, read-out: Nitrite assay IC50
[9] = % survival at a concentration of 50 μM
[10] = Homo sapiens, HEK293, read-out: NF-κB assay IC50
[11] = RAW264.7, % inhibition of NO at 50 μM, LPS 1 µg/mL, 20 h
[12] = RAW264.7, LPS-activated RAW 264.7 cells, read-out: Nitrite assay IC50
[13] = acetate versus parent, from IC50

Compound | NF-κB assay % surv. ([1]; human, 6 h, 50 µM) | inhibition at 50 µM [2, 6] | IC50 [2, 7] | inhibition at 50 µM ([3]; RAW264.7, 20 h) | IC50 [3, 8] | Nitrite assay % surv. (RAW 264.7 cells) | cytotoxicity in NO assay (RAW 264.7 cells) | further results
CC1=C(C)C(=O)OC(C(C)(O)C2(O)CCC3(O)C4CC(O)C5(O)C(O)C(O)CC(=O)C5(C)C4CCC32C)C1 [Compound 1, (20S,22R)-3α,4β,5α,6β,14α,17β,20β-heptahydroxy-1-oxowitha-24-ene-26,22-olide] | 100 ± 24.5% | 93.4 ± 1.2% | 10 ± 10 nM | 82.4 ± 1.1% | 13300 ± 200 nM | 100 ± 1.1% | without significant cytotoxicity | 
CC1=C(C)C(=O)OC(C(C)(O)C2(O)CCC3(O)C4CC(Cl)C5(O)C(O)C=CC(=O)C5(C)C4CCC32C)C1 [Compound 2, (20S,22R)-4β,5β,14α,17β,20α-pentahydroxy-6α-chloro-1-oxowitha-2,24-diene-22,26-olide] | 100.0 ± 14.4% | 97.4 ± 1.1% | 60 ± 20 nM | 99.4 ± 0.1% | 3300 ± 300 nM | 96.1 ± 3.2% | without significant cytotoxicity | 
CC(=O)OC1C=CC(=O)C2(C)C3CCC4(C)C(O)(CCC4(O)C(C)(O)C4CC(C)=C(C)C(=O)O4)C3CC(Cl)C12O (stereo not shown) [Compound 2a] | 12.3 ± 7.58% | 92.2 ± 0.6% | 1100 ± 420 nM | 99.2 ± 2.6% | 8700 ± 600 nM | 93.2 ± 2.3% | without significant cytotoxicity | 
CC1=C(C)C(=O)OC([C@](C)(O)[C@]2(O)CC[C@@]3(O)C4C[C@H]5O[C@]56[C@@H](O)C=CC(=O)[C@]6(C)C4CC[C@]23C)C1 (stereo partly drawn) [Compound 3, 4β-hydroxywithanolide E] | 88.6 ± 10.1% | 99.5 ± 0.1% | 40 ± 30 nM | 99.2 ± 0.4% | 320 ± 20 nM | 50.1 ± 2.3% |  | IC50 [4]: 900 nM; IC50 at 20 h [5]: 14 µM
CC(=O)O[C@H]1C=CC(=O)[C@]2(C)C3CC[C@]4(C)[C@](O)([C@@](C)(O)C5CC(C)=C(C)C(=O)O5)CC[C@@]4(O)C3C[C@H]3O[C@]132 (stereo partly shown) [Compound 3a] | 2.2 ± 2.6% | 99.9 ± 0.9% | 470 ± 610 nM | 99.2 ± 0.4% | 240 ± 10 nM | 38.9 ± 2.3% |  | NO inhibitory activity [3]: most active; IC50 at 20 h [5]: 2.1 µM
CO[C@H]1CC(=O)[C@]2(C)C3CC[C@@]4(C)C(=C3C[C@H]3O[C@]32[C@H]1O)CC[C@@]4(O)[C@@](C)(O)C1CC(C)=C(C)C(=O)O1 (stereo partly shown) [Compound 4, physalactone] |  |  |  |  |  | 90.7 ± 5.0% | without significant cytotoxicity | NF-κB assay % surv. [1, 9]: 100.0 ± 16.6%; inhibition at 50 µM ([2]; Homo sapiens, HEK293, 6 h): 66.7 ± 3.9%; IC50 [2, 10]: 11000 ± 2300 nM; inhibition at 50 µM [3, 11]: 97.9 ± 2%; IC50 [3, 12]: 1800 ± 170 nM
CO[C@H]1CC(=O)[C@]2(C)C3CC[C@@]4(C)C(=C3C[C@H]3O[C@]32[C@H]1OC(C)=O)CC[C@@]4(O)[C@@](C)(O)C1CC(C)=C(C)C(=O)O1 (stereo partly shown) [Compound 4a] |  |  |  |  |  | 40.3 ± 4.1% |  | NF-κB assay % surv. [1, 9]: 77.7 ± 5.3%; inhibition at 50 µM ([2]; Homo sapiens, HEK293, 6 h): 88 ± 1.3%; IC50 [2, 10]: 330 ± 100 nM; NF-κB activity enhanced relative to parent compound [2, 13]: over 30 fold; inhibition at 50 µM [3, 11]: 99.8 ± 0.3%; IC50 [3, 12]: 240 ± 10 nM; NO inhibitory activity [3]: most active
CC1=C(C)C(=O)OC([C@](C)(O)[C@]2(O)CC[C@@]3(O)C4C[C@@H](O)C5=CC=CC(=O)[C@]5(C)C4CC[C@]23C)C1 (stereo partly shown) [Compound 5, withaperuvin C] | 100.0 ± 8.0% | 85 ± 4.4% | 5600 ± 2100 nM | 99.2 ± 0.7% | 2400 ± 200 nM | 79.3 ± 1.2% | without significant cytotoxicity | 
CC(=O)O[C@@H]1CC2C(CC[C@]3(C)[C@](O)([C@@](C)(O)C4CC(C)=C(C)C(=O)O4)CC[C@@]23O)[C@@]2(C)C(=O)C=CC=C12 (stereo partly shown) [Compound 5a, withaperuvin C acetate] | 47.0 ± 6.0% | 78.3 ± 3% | 2400 ± 1700 nM | 99 ± 0.3% | 1800 ± 100 nM | 98.8 ± 1.4% | without significant cytotoxicity | 
CC(=O)OC1C[C@H](O)CC2=CCC3C4CCC([C@@](C)(O)[C@H](O)C[C@@H]5COC(=O)[C@@]5(C)O)[C@@]4(C)CCC3[C@]21C (stereo partly shown) [Compound 6, perulactone C] | 36.5 ± 1.9% | 56.1 ± 3.9% | 1100 ± 480 nM | 84.2 ± 3.7% | 11800 ± 300 nM | 95.3 ± 11.0% | without significant cytotoxicity | 
CC(=O)OC1C[C@H](OC(C)=O)CC2=CCC3C4CCC([C@@](C)(O)[C@@H](C[C@@H]5COC(=O)[C@@]5(C)O)OC(C)=O)[C@@]4(C)CCC3[C@]21C (stereo partly shown) [Compound 6a] | 21.8 ± 0.8% | 77.4 ± 7.3% | 10500 ± 2550 nM | 20.6 ± 3% |  | 92.0 ± 5.0% |  | NF-κB activity diminished relative to parent compound [2, 13]: about 10 fold
CC1=C(CO)CC(C(C)(O)C2(O)CCC3(O)C4CC(O)C5(O)CC=CC(=O)C5(C)C4CCC32C)OC1=O (stereo not shown) [Compound 7, phyperunolide B] | 81.6 ± 8.4% | 41 ± 6.9% |  | 7.4 ± 3.5% |  | 100.0 ± 14.1% |  | 
CC1=C(C)C(=O)OC(C(C)(O)C2(O)CC(O)C3(O)C4CC(O)C5(O)CC=CC(=O)C5(C)C4CCC32C)C1 (stereo not shown) [Compound 8, coagulin H] | 82.2 ± 3.9% | 70.2 ± 8.1% | 8900 ± 1100 nM | 67.1 ± 2.2% | 16700 ± 400 nM | 100.0 ± 6.3% |  | 
[H]/N=C(/NC)NCCC[C@H](N)C(=O)O [L-NMMA, L-N^G-Monomethyl arginine citrate, reference compound] |  |  |  |  |  |  |  | IC50 [3, 12]: 23500 ± 3400 nM
Cc1ccc(S(=O)(=O)N[C@@H](Cc2ccccc2)C(=O)CCl)cc1 [TPCK, Nα-tosyl-L-phenylalanine chloromethyl ketone, reference compound] |  |  |  |  |  |  |  | IC50 ([2]; TNF-α-induced NF-κB luciferase, HEK293, read-out: NF-κB assay IC50): 7080 ± 1720 nM
